# Assay results published in PMC8421423, “Cellular model system to dissect the isoform-selectivity of Akt inhibitors” (Nature Communications, 2021).
# Where “and” joins values, the source holds several entries; their conditions need not be identical. Equal values may be shown once. Read-outs that look alike come from different tables or passages of the source.
# How the values were obtained:
# [1] = test system: Ba/F3^myr-Akt3 cells; experiment: CellTiter-Glo cell viability assay; settings: for Log ratio EC50 [Akt] / EC50 [Akt], Akt3 / Akt2: cell viability assay Ba/F3 myr-Akt cells, log units
# [2] = test system: Ba/F3^myr-Akt2 cells; experiment: CellTiter-Glo cell viability assay
# [3] = molecular target: T1, Akt2 (Homo sapiens, UniProt P31751); experiment: PhosphoSens continuous fluorometric kinetic enzyme assay
# T1 sequence (P31751 whole entry): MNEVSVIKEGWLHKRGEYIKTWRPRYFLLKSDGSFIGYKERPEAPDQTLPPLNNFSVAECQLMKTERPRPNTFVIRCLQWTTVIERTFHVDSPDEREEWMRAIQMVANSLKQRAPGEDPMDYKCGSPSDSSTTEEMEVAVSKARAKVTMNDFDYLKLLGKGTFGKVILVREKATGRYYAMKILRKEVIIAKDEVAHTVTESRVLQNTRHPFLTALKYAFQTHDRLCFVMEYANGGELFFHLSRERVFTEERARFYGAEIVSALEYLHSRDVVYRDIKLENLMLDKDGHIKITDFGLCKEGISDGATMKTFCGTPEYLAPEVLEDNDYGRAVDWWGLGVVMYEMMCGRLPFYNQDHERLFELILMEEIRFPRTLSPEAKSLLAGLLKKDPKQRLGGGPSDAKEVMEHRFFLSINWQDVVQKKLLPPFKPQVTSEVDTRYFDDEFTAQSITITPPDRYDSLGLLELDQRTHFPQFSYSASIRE
# Description: (§1) By addition of either 8 nM Akt1, 2 nM Akt2, or 5 nM Akt3 (final concentrations) the reactions were initiated. […] Afterwards the kobs-values were plotted versus the inhibitor concentrations [I] and then fit to the following hyperbolic Eq.
# [4] = test system: Ba/F3^myr-Akt1 cells; experiment: CellTiter-Glo cell viability assay; settings: for Log ratio EC50 [Akt] / EC50 [Akt], Akt1 / Akt2: cell viability assay Ba/F3 myr-Akt cells, log units
# Description: On day 0, cells were plated into white 384-well cell culture plates (Greiner Bio-One) using a Multidrop reagent dispenser (Thermo Fisher Scientific) at cell numbers that ensure linear and optimal luminescent signal intensity (Ba/F3myr-Akt1: 600 cells/well, Ba/F3myr-Akt2: 800 cells/well, Ba/F3myr-Akt3: 800 cells/well). […] Cell viability was analyzed on day 4 using the CellTiter-Glo Assay (Promega) as per the manufacturer’s instructions. […] All experimental points were measured in duplicates for each plate and were replicated in at least three plates.
# [5] = molecular target: T2, Akt1 (Homo sapiens, UniProt P31749); experiment: STK HTRF KinEASE activity-based assay (IC50); settings: for Log ratio IC50 [Akt] / IC50 [Akt], Akt1 / Akt2: biochemical activity based assay, log units
# T2 sequence (P31749 whole entry): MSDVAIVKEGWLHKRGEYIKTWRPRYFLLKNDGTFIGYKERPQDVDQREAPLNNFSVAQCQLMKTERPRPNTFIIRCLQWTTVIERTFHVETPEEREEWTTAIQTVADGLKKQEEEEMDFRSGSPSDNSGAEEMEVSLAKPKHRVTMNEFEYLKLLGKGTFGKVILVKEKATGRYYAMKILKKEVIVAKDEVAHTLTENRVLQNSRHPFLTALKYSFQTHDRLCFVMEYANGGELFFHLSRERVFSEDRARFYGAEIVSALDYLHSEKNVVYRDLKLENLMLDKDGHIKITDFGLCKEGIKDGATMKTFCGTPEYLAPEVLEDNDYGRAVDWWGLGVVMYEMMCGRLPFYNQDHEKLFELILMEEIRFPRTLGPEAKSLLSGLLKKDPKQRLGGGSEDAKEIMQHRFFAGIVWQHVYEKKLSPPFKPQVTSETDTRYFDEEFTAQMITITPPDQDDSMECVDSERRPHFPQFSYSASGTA
# Description: (§2) The biochemical half maximal inhibitory concentrations (IC50) were determined with the STK HTRF KinEASE assay (Cisbio) according to the manufactor’s instructions. Briefly: 5 µL Kinase solution and 2.5 µL inhibitor solution (8% DMSO in HTRF buffer) were incubated for 1 h before the reaction was started by addition of 2.5 µL starting solution containing ATP and substrate peptide. […] After reaction completion (Akt1: 60 min, Akt2: 20 min, Akt3: 15 min), 10 µL of stop solution were added. […] The quotient of both intensities were recorded at eight different inhibitor concentrations and data fit to a Hill 4-parameter equation with Quattro software suite (Quattro Research GmbH, Martinsried, Germany). Each reaction was performed in duplicates and at least three independent determinations of each IC50 were made.
# [6] = molecular target: Akt3 (Homo sapiens, UniProt Q9Y243); experiment: STK HTRF KinEASE activity-based assay (IC50)
# Akt3, sequence (Q9Y243 whole entry): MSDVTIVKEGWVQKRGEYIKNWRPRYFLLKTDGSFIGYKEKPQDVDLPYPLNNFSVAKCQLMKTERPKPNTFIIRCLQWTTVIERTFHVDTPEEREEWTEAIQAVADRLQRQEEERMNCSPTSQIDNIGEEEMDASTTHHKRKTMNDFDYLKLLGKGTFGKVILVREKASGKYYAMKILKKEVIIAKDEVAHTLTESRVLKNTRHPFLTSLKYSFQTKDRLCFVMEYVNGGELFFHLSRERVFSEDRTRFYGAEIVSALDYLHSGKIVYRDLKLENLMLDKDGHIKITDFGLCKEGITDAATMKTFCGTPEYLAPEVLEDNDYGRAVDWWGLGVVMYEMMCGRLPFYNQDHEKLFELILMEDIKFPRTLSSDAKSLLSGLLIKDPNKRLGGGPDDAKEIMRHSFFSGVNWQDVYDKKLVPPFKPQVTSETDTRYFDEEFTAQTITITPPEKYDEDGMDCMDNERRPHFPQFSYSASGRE
# [7] = molecular target: T2, Akt1; experiment: PhosphoSens continuous fluorometric kinetic enzyme assay
# Description: as §1
# [8] = molecular target: T1, Akt2; experiment: STK HTRF KinEASE activity-based assay (IC50)
# Description: as §2
# [9] = test system: parental Ba/F3 cells; experiment: CellTiter-Glo cell viability assay; format: cell-based, murine
# [10] = Mus musculus, read-out: CTG BaF3myr-Akt3, Mean, mean of replicates
# [11] = Mus musculus, read-out: CTG BaF3myr-Akt3, individual determinations, single replicates
# [12] = read-out: CTG BaF3myr-Akt3, individual determinations, single replicates
# [13] = Mus musculus, read-out: CTG BaF3myr-Akt2, Mean, mean of replicates
# [14] = Mus musculus, read-out: CTG BaF3myr-Akt2, individual determinations, single replicates
# [15] = read-out: CTG BaF3myr-Akt2, individual determinations, single replicates
# [16] = Ki Akt2, Mean, mean of replicates
# [17] = Ki Akt2, individual determinations, single replicates
# [18] = read-out: kinact /Ki Akt2, Mean, mean of replicates
# [19] = read-out: kinact /Ki Akt2, individual determinations, single replicates
# [20] = read-out: kinact Akt2, individual determinations, single replicates
# [21] = Mus musculus, read-out: CTG BaF3myr-Akt1, individual determinations, single replicates
# [22] = read-out: CTG BaF3myr-Akt1, individual determinations, single replicates
# [23] = HTRF IC50 Akt1, Mean, mean of replicates
# [24] = HTRF IC50 Akt1, individual determinations, single replicates
# [25] = IC50 Akt1, HTRF, ATP at KM, 1 h preincubation
# [26] = HTRF IC50 Akt3, Mean, mean of replicates
# [27] = HTRF IC50 Akt3, individual determinations, single replicates
# [28] = IC50 Akt3, HTRF, ATP at KM, 1 h preincubation
# [29] = Ki Akt1, Mean, mean of replicates
# [30] = Ki Akt1, individual determinations, single replicates
# [31] = read-out: kinact /Ki Akt1, Mean, mean of replicates
# [32] = read-out: kinact Akt1, individual determinations, single replicates
# [33] = HTRF IC50 Akt2, Mean, mean of replicates
# [34] = HTRF IC50 Akt2, individual determinations, single replicates
# [35] = IC50 Akt2, HTRF, ATP at KM, 1 h preincubation
# [36] = parental cells, single replicates, read-out: CTG BaF3, individual determinations
# [37] = Mus musculus, BaF3, CTG, parental BaF3 cell line, read-out: EC50 BaF3
# [38] = Mus musculus, BaF3, parental cells, mean of replicates, read-out: CTG BaF3, Mean
# [39] = Mus musculus, BaF3, parental cells, single replicates, read-out: CTG BaF3, individual determinations
smiles,measurement,setting,value
C=CC(=O)Nc1ccc2[nH]c(=O)n(C3CCN(Cc4ccc(-c5ncc(C(=O)Nc6cnn(C)c6)cc5-c5ccccc5)cc4)CC3)c2c1 [compound 13],EC50,[1]; [10],22600 nM
same,EC50,[1]; [11],25800 nM
same,"Log ratio EC50 [Akt] / EC50 [Akt], Akt3 / Akt2",[1],-0.50
same,EC50,[1]; [12],26500 nM and 15600 nM
same,EC50,[2]; [13],7180 nM
same,EC50,[2]; [14],7180 nM
same,EC50,[2]; [15],6220 nM and 7660 nM
same,Ki,[3]; Ki Akt2,40 ± 3 nM
same,Ki,[3]; [16],40.8 nM
same,Ki,[3]; [17],42.3 nM (2×) and 37.7 nM
same,kinact/KI,[3]; read-out: kinact /Ki Akt2,8000 ± 1000 M⁻¹ s⁻¹
same,kinact/KI,[3]; [18],7580 M⁻¹ s⁻¹
same,kinact/KI,[3]; [19],7430 M⁻¹ s⁻¹
same,kinact,[3]; read-out: kinact Akt2,0.000317 s⁻¹
same,kinact,"[3]; read-out: kinact Akt2, Mean, mean of replicates",0.000317 s⁻¹
same,kinact,[3]; [20],0.000317 s⁻¹
same,"kinact /Ki Akt2, individual determinations",[3]; single replicates,0.00743
same,"kinact Akt2, individual determinations",[3]; single replicates,0.019 min⁻¹ and 0.018 min⁻¹
same,EC50,"[4]; Mus musculus, read-out: CTG BaF3myr-Akt1, Mean, mean of replicates",19300 nM
same,EC50,[4]; [21],21300 nM
same,"Log ratio EC50 [Akt] / EC50 [Akt], Akt1 / Akt2",[4],0.43
same,EC50,[4]; [22],19500 nM and 17100 nM
same,IC50,[5]; [23],97.6 nM
same,IC50,[5]; [24],113 nM and 96 nM and 84.4 nM
same,IC50,[5]; [25],98 ± 15 nM
same,"Log ratio IC50 [Akt] / IC50 [Akt], Akt1 / Akt2",[5],0.27
same,IC50,[6]; [26],3540 nM
same,IC50,[6]; [27],3080 nM and 3130 nM and 4410 nM
same,IC50,[6]; [28],3540 ± 617 nM
same,Ki,[7]; Ki Akt1,8 ± 2 nM
same,Ki,[7]; [29],8.12 nM
same,Ki,[7]; [30],5.5 nM and 10.9 nM
same,kinact/KI,[7]; read-out: kinact /Ki Akt1,31000 ± 11000 M⁻¹ s⁻¹
same,kinact/KI,[7]; [31],31000 M⁻¹ s⁻¹
same,kinact,[7]; read-out: kinact Akt1,0.000233 s⁻¹
same,kinact,[7]; [32],0.00025 s⁻¹
same,"kinact Akt1, individual determinations",[7]; single replicates,0.012 min⁻¹ and 0.015 min⁻¹
same,IC50,[8]; [33],53.5 nM
same,IC50,[8]; [34],53.9 nM and 59.1 nM and 47.4 nM
same,IC50,[8]; [35],53 ± 5 nM
same,EC50,[9]; [36],9100 nM and 28800 nM and > 30000 nM
C=CC(=O)Nc1ccc2[nH]c(=O)n(C3CCN(Cc4ccc(-c5ncc(Cn6ccnc6)cc5-c5ccccc5)cc4)CC3)c2c1 [compound 11],EC50,[1]; [10],18600 nM
same,EC50,[1]; [11],18300 nM
same,"Log ratio EC50 [Akt] / EC50 [Akt], Akt3 / Akt2",[1],-0.84
same,EC50,[1]; [12],13700 nM and 17700 nM and 24600 nM
same,EC50,[2]; [13],2690 nM
same,EC50,[2]; [14],3180 nM
same,EC50,[2]; [15],2510 nM and 2370 nM
same,Ki,[3]; Ki Akt2,11 ± 1 nM
same,Ki,[3]; [16],10.2 nM
same,Ki,[3]; [17],8.9 nM and 11.3 nM and 10.3 nM
same,kinact/KI,[3]; read-out: kinact /Ki Akt2,20000 ± 4000 M⁻¹ s⁻¹
same,kinact/KI,[3]; [18],20000 M⁻¹ s⁻¹
same,kinact/KI,[3]; [19],25000 M⁻¹ s⁻¹
same,kinact,[3]; read-out: kinact Akt2,0.0002 s⁻¹
same,kinact,[3]; [20],0.000217 s⁻¹
same,"kinact Akt2, individual determinations",[3]; single replicates,0.013 min⁻¹ and 0.009 min⁻¹
same,EC50,[4]; [21],28200 nM
same,"Log ratio EC50 [Akt] / EC50 [Akt], Akt1 / Akt2",[4],1.03
same,EC50,[4]; [22],27.1 µM and > 30 µM (2×)
same,IC50,[5]; [24],778 nM and 571 nM and 580 nM
same,IC50,[5]; [25],643 ± 95 nM
same,"Log ratio IC50 [Akt] / IC50 [Akt], Akt1 / Akt2",[5],0.93
same,IC50,[6]; [26],1890 nM
same,IC50,[6]; [27],1360 nM and 1740 nM and 2570 nM
same,IC50,[6]; [28],1890 ± 621 nM
same,Ki,[7]; Ki Akt1,9 ± 2 nM
same,kinact/KI,[7]; read-out: kinact /Ki Akt1,26000 ± 2000 M⁻¹ s⁻¹
same,kinact,[7]; read-out: kinact Akt1,0.0002 s⁻¹
same,IC50,[8]; [33],76.1 nM
same,IC50,[8]; [34],78.2 nM and 61.8 nM and 88.3 nM
same,IC50,[8]; [35],76 ± 11 nM
same,EC50,[9]; [37],> 30000 nM
same,EC50,[9]; [38],> 30000 nM
same,EC50,[9]; [39],> 30000 nM
same,EC50,[9]; [36],> 30000 nM
C=CC(=O)Nc1ccc2[nH]c(=O)n(C3CCN(Cc4ccc(-c5ncc(C(=O)Nc6cccnc6)cc5-c5ccccc5)cc4)CC3)c2c1 [compound 22],EC50,[1]; [10],18800 nM
same,EC50,[1]; [11],18300 nM
same,"Log ratio EC50 [Akt] / EC50 [Akt], Akt3 / Akt2",[1],-0.71
same,EC50,[1]; [12],20700 nM and 18200 nM
same,EC50,[2]; [13],3680 nM
same,EC50,[2]; [15],3180 nM and 5400 nM and 2460 nM
same,Ki,[3]; Ki Akt2,11 ± 1 nM
same,Ki,[3]; [16],10.8 nM
same,Ki,[3]; [17],9.4 nM and 10.7 nM and 12.2 nM
same,kinact/KI,[3]; read-out: kinact /Ki Akt2,23000 ± 7000 M⁻¹ s⁻¹
same,kinact/KI,[3]; [18],23000 M⁻¹ s⁻¹
same,kinact/KI,[3]; [19],30000 M⁻¹ s⁻¹
same,kinact,[3]; read-out: kinact Akt2,0.000233 s⁻¹
same,kinact,[3]; [20],0.000283 s⁻¹
same,"kinact Akt2, individual determinations",[3]; single replicates,0.013 min⁻¹ and 0.012 min⁻¹
same,EC50,[4]; [21],> 30000 nM
same,"Log ratio EC50 [Akt] / EC50 [Akt], Akt1 / Akt2",[4],0.79
same,EC50,[4]; [22],15100 nM and 22500 nM
same,IC50,[5]; [23],209 nM
same,IC50,[5]; [24],248 nM and 169 nM and 245 nM
same,IC50,[5]; [25],209 ± 40 nM
same,"Log ratio IC50 [Akt] / IC50 [Akt], Akt1 / Akt2",[5],0.58
same,IC50,[6]; [26],3050 nM
same,IC50,[6]; [27],2240 nM and 3090 nM and 3820 nM
same,IC50,[6]; [28],3050 ± 646 nM
same,Ki,[7]; Ki Akt1,9 ± 3 nM
same,Ki,[7]; [29],8.74 nM
same,Ki,[7]; [30],12 nM and 5.9 nM and 8.3 nM
same,kinact/KI,[7]; read-out: kinact /Ki Akt1,26000 ± 1000 M⁻¹ s⁻¹
same,kinact/KI,[7]; [31],26000 M⁻¹ s⁻¹
same,kinact/KI,"[7]; read-out: kinact /Ki Akt1, individual determinations, single replicates",26000 M⁻¹ s⁻¹
same,kinact,[7]; read-out: kinact Akt1,0.000233 s⁻¹
same,kinact,[7]; [32],0.000317 s⁻¹
same,"kinact Akt1, individual determinations",[7]; single replicates,0.010 min⁻¹ and 0.013 min⁻¹
same,IC50,[8]; [33],54.7 nM
same,IC50,[8]; [34],57.5 nM and 58.8 nM and 47.9 nM
same,IC50,[8]; [35],55 ± 5 nM
same,EC50,[9]; [37],> 30000 nM
same,EC50,[9]; [38],> 30000 nM
same,EC50,[9]; [39],> 30000 nM
same,EC50,[9]; [36],> 30000 nM
